{"source": "patent US20140187648A1", "about": "“Identifying Subjects in Need of Treatment” (HOWARD FOUNDATION HOLDINGS LTD., priority 2013, published 2014)", "origin": "cited, not measured here", "tested_on": "subjects who exhibit an abnormally low concentration of MP in the central portion of the retina"}
{"molecule": "CC1=C[C@H](O)CC(C)(C)[C@H]1/C=C/C(C)=C/C=C/C(C)=C/C=C/C=C(C)/C=C/C=C(C)/C=C/C1=C(C)C[C@@H](O)CC1(C)C", "note": "[lutein, reference compound]", "values": [{"measurement": "effect on MP", "setting": "subjects with abnormally low MP in the central portion of the retina", "result": "little effect"}]}
{"molecule": "meso-zeaxanthin [MZ]", "values": [{"measurement": "MP levels outside the central portion of the retina", "setting": "subjects with abnormally low central MP", "result": "little effect"}, {"measurement": "MP levels in the central portion of the retina", "setting": "subjects with abnormally low central MP, eccentricity 0.25° or less", "result": "return MP levels in the central portion of the retina substantially to normal"}]}
